Measured values reported in US11415513B2, “Method for determining the degree of sensitivity of a strain of fungus to an antifungal agent” (UNIVERSITE GRENOBLE ALPES, priority 2015, dated 2022).
In brackets after ≈: the same amount, converted by molar mass.

Tests used:
[1] = tested on: strain SC5314 of C. albicans; experiment: Sensitivity test by HCA microscopy (chitin level, Calcofluor White; cell count); format: cell-based, Candida albicans; conditions: 6.5 h at 30° C., SC medium; for decrease of the number of cells / increase of the chitin level in the wall of the cells: vs cells in the absence of antifungal agent, concentration gradient of Table 1
Procedure: (§1) The strains of Candida were incubated beforehand at 30° C. overnight in a yeast extract medium—peptone dextrose (YPD) (1% bacto peptone, 0.5% yeast extract, 2% glucose, 1.5% agar).
(§2) Yeast colonies were then removed from YPD medium plates and suspended in a 0.9% NaCl saline solution, in which the cell concentration was estimated by optical microscopy using Kova counting slides.
(§3) A dilution was performed to obtain 15 ml of an inoculum at 3×10^6 CFU/ml, in a synthetic complete (SC) medium at pH 7 (2% glucose, 0.5% ammonium sulfate, 0.17% nitrogen-containing yeast base, 0.2% synthetic complete mixture, and 10% HEPES 1.5M pH 7.2) for C. albicans, C. parapsilosis, C. tropicalis and C. krusei, and in a solution of RPMI 1640 pH 7.3 (10% HEPES 1M pH 7.2) for C. glabrata, so as to reduce the formation of septa and clusters.
(§4) 1 ml of inoculum was then added to 2 ml of antifungal solution prepared in an SC or RPMI medium depending on the species of fungus, so as to obtain a final concentration of yeast of 10^6 CFU/ml and the desired concentration of antifungal agent according to table 1.
(§5) After homogenisation, the cultures were placed at 30° C. at 200 rpm, with the exception of cultures of C. glabrata, which were placed at 35° C. at 200 rpm, and incubated for a period of 6.5 h or 24 h.
(§6) After incubation, 100 μl of the culture of fungi obtained above were transferred in triplicate to 96-well plates, and 2.5 μl of Calcofluor White (CFW) were added to each well so as to mark the chitin of the cell walls of the yeasts.
(§7) A step of acquiring images by automated fluorescence microscopy (ScanR screening station, Olympus), using a 40× lens and a CFW filter, made it possible to obtain 30 images per well so as to capture enough cells to provide statistically significant data. These images were analysed by software (ScanR analysis software, Olympus). Firstly, the background noise was processed so as to improve the contrast between the fluorescence of the yeasts and background noise. A pixel threshold was then defined. Segmentation of the fluorescent elements present in each of the acquired images was then performed using an algorithm predefined in the software, making it possible to determine the limit of each element on the basis of the fluorescence intensity of said element. A size parameter was then applied to select the yeasts and eliminate the aggregates and the fluorescent debris.
(§8) Each element then corresponding to a yeast, it was thus possible, on the basis of these elements predefined beforehand, to define the fluorescence intensity for each of the yeasts, this intensity being directly correlated with the chitin content of their wall.
(§9) On the basis of said defined elements, it was also possible to automatically count the yeasts,
The strain SC5314 of C. albicans was cultivated as described in paragraph I of the Examples section so as to obtain an inoculum at 3×10^6 CFU/ml in 15 ml of SC medium.
2 ml of fluconazole solution prepared in the SC medium were then added to 1 ml of this inoculum so as to obtain a final concentration of yeast of 10^6 CFU/ml and of 16 μg/ml in fluconazole.
The inoculum was treated in the same way so as to obtain cultures of 10^6 CFU/ml and the following concentrations of fluconazole: 0.015 μg/ml, 0.031 μg/ml, 0.062 μg/ml, 0.125 μg/ml, 0.25 μg/ml, 0.5 μg/ml, 1 μg/ml, 2 μg/ml, 4 μg/ml, 8 μg/ml, 16 μg/ml.
After incubation for 6.5 h at 30° C. with stirring at 200 rpm, 100 μl of each culture were removed and transferred to 96-well plates. This procedure was performed in triplicate, and 2.5 μl of CFW were then added to each well.
The chitin level in the cell wall of the yeasts was then measured by […] analysis (HCA) microscopy, as described in paragraph II of the Examples section, in triplicate for each condition of concentration of fluconazole and without fluconazole.

[2] = tested on: strain ATCC®6258 of C. krusei; experiment: as above; format: cell-based, Candida krusei
Procedure: as §1, §2, §3, §4, §5, §6, §7, §8, §9
The strain ATCC®6258 of C. krusei was cultivated as described in paragraph I of the Examples section so as to obtain an inoculum at 3×10^6 CFU/ml in 15 ml of SC medium.
2 ml of fluconazole solution prepared in the SC medium were then added to 1 ml of this inoculum so as to obtain a final concentration of yeast of 10^6 CFU/ml and of 128 μg/ml in fluconazole. […]
The chitin level in the cell wall of the yeasts was then measured by […] analysis (HCA) microscopy, as described in paragraph II of the Examples section, in triplicate for each condition of concentration of fluconazole and without fluconazole. […]

[3] = tested on: strain GRE32 of C. krusei; experiment: Etest method (MIC); format: cell-based, Candida krusei; conditions: RPMI medium plates, 24 h at 35° C.; for MIC: Pichia kudriavzevii; for phenotype by Etest MIC, interpretation by the EUCAST or CLSI table: fluconazole interpreted by extrapolation of the EUCAST and CLSI data for C. glabrata
Procedure: (§10) The Etest® method is a commercial test for determining the sensitivity of a strain, most frequently used routinely in clinical mycology laboratories.
(§11) The Etest® tests were performed according to the manufacturer's instructions. After distributing a standardised Mac Farland 0.5 inoculum (equivalent of […]) over plates of RPMI medium, said plates were incubated for 24 h at 35° C., with the exception of C. glabrata in which case the incubation was extended to 48 h so as to be able to determine the minimum inhibitory concentration (MIC).
(§12) The results of the MICs obtained were interpreted in accordance with the tables of the CLSI (Clinical and Laboratory Standards Institute) and/or of EUCAST (European Committee on Antimicrobial Susceptibility Testing) (Arendrup M C, Cuenca-Estrella M, Lass-Flörl C, Hope W W (2014) Breakpoints for antifungal agents: an update from EUCAST focussing on echinocandins against Candida spp and triazoles against Aspergillus spp. Drug Resist Updat 16(6):81-95. doi:10.1016/j.drup.2014.01.001) (cf. Table 2 taken from Maubon D, Garnaud C, Calandra T, et al. (2014) Resistance of Candida spp. to antifungal drugs in the ICU: where are we now? Intensive Care Med. doi: 10.1007/s00134-014-3404-7) which list the clinical thresholds (CBPs) for the most common species of yeast of the genus Candida as a function of different antifungal agents, or according to the table of epidemiological thresholds (ECVs).

[4] = tested on: strain ATCC®6258 of C. krusei; experiment: Etest method (MIC); format: cell-based, Candida krusei; conditions: RPMI medium plates, 24 h at 35° C.; for MIC: Pichia kudriavzevii, ATCC6258; for phenotype by Etest MIC, interpretation by the EUCAST or CLSI table: fluconazole interpreted by extrapolation of the EUCAST and CLSI data for C. glabrata
Procedure: as §10, §11, §12

Row | SMILES | phenotype of the strain with respect to the antifungal agent (HCA) [1] | decrease of the number of cells [1] | increase of the chitin level in the wall of the cells [1] | phenotype of the strain with respect to the antifungal agent (HCA) ([2]; 6.5 h at 30° C., SC medium) | increase in the chitin level in the wall of the cells ([2]; vs cells in the absence of antifungal agent, 6.5 h at 30° C., SC medium, concentration gradient of Table 1) | MIC [3] | phenotype by Etest MIC, interpretation by the EUCAST or CLSI table [3] | MIC [4] | phenotype by Etest MIC, interpretation by the EUCAST or CLSI table [4] | phenotype of the strain with respect to the antifungal agent (HCA) ([2]; 24 h at 30° C., RPMI medium) | decrease of the number of cells ([2]; vs cells in the absence of antifungal agent, 24 h at 30° C., RPMI medium) | increase of the chitin level in the wall of the cells ([2]; vs cells in the absence of antifungal agent, 24 h at 30° C., RPMI medium, concentration gradient of Table 1)
1 | OC(Cn1cncn1)(Cn1cncn1)c1ccc(F)cc1F [fluconazole] | sensitive (an increase in the chitin level greater than or equal to 20% is observed compared to the chitin level of a population of cells of said fungus in the absence of antifungal agent, as well as a decrease in the number of cells of at least 0.3 log) | at least 0.3 log | greater than or equal to 20% | resistant (an increase in the chitin level having a value less than 10% or a decrease in the chitin level of less than 20% or an unchanged chitin level) | less than 10% | 64 µg/mL (≈ 209 µM) | resistant | 64 µg/mL (≈ 209 µM) | resistant | – | – | –
2 | C[C@@H](c1ncncc1F)[C@](O)(Cn1cncn1)c1ccc(F)cc1F [voriconazole] | sensitive (an increase in the chitin level greater than or equal to 20% is observed compared to the chitin level of a population of cells of said fungus in the absence of antifungal agent, as well as a decrease in the number of cells of at least 0.3 log) | at least 0.3 log | greater than or equal to 20% | – | – | 1 µg/mL (≈ 2.86 µM) | intermediate | 1 µg/mL (≈ 2.86 µM) | intermediate | intermediate (an increase in the chitin level having a value of from 10% to a value less than 20%) | less than 0.3 log | greater than or equal to 20%
